The values that follow come from patent US20070072954A1, “Novel tetraoxaspiroalkanes and methods of use with organosilicon monomers in polyerizable compositions” (Curators of the University of Missouri, priority 2005, published 2007).

A short description of the data set: Mechanical properties measurement (3-point bend tests). In kind it is physicochemical. As to the method:
In this example, the elastic modulus, ultimate strength, and work of fracture were determined for the monomers of the present invention. […] The resin was injected into the mold and cured by irradiation (500 mW/cm^2) followed by storage in the dark for 4 hours and 24 hours before mechanical tests were conducted. Three point bending tests were conducted using an electromagnetic mechanical testing machine (Enduratec Model 3200) with a 20-mm span and at a crosshead displacement rate of 0.5mm/ min at room temperature (25° C.). Load-displacement data were collected at 100 Hz. […] Flexural ultimate strength was determined from the peak loads and work of fracture was determined from the area under the stress-strain curve.

Setting [1] is: 4-hour Post Cure, 10 mol % TOSU in SIL-MIX.
The mark [2] stands for this setting: 4-hour Post Cure, 25 mol % TOSU in SIL-MIX.
Where [3] appears, read: 24-hour Post Cure, 10 mol % TOSU in SIL-MIX.
Where [4] appears, read: 24-hour Post Cure, 25 mol % TOSU in SIL-MIX.

Molecules are shown by their SMILES. Marks after values point to notes of the source that are not given here.

As for `CCC1(COCCC[Si](C)(C)C)COC2(OC1)OCC(CC)(COCCC[Si](C)(C)C)CO2` (stereo not shown) [Monomer 6, 3,9-diethyl-3,9-bis(3-trimethylsilylpropyloxymethyl)-1,5,7,11-tetraoxaspiro[5.5]undecane], the Flexural elastic modulus (4-h Post Cure, 10 mol % TOSU in SIL-MIX) is recorded as 1.61 (0.17)^a GPa; the Flexural elastic modulus (4-h Post Cure, 25 mol % TOSU in SIL-MIX) is 1.33 (0.18)^a GPa; the Flexural elastic modulus (24-h Post Cure, 10 mol % TOSU in SIL-MIX) is 2.41 (0.24)^b GPa; the Flexural elastic modulus (24-h Post Cure, 25 mol % TOSU in SIL-MIX) is recorded as 1.87 (0.06)^a GPa. Also, the Flexural strength is, setting by setting: under setting [1], 58.77 (19.08)^a,b MPa; under setting [2], 30.90 (11.36)^a MPa; under setting [3], 76.90 (10.19)^a,b MPa; under setting [4], 56.63 (11.11)^a MPa. The Work of Fracture runs as follows: under setting [1], 2.67 (1.25)^a kJ/m^2; under setting [2], 0.73 (0.38)^a kJ/m^2; under setting [3], 3.07 (0.81)^a,b kJ/m^2; under setting [4], 1.80 (0.87)^a kJ/m^2. In addition, the “24-hour modulus values as % of those for SIL-MIX alone” value turned out to be 77% (10 mol % TOSU) and 60% (25 mol % TOSU). For the same molecule, the “24-hour strength values as % of those for SIL-MIX alone” value reads like this: (10 mol % TOSU) 84%; (10 mol % TOSU, listed as TOSU) 85%; (25 mol % TOSU) 60%. For the same molecule, the “24-hour work of fracture values as % of those for SIL-MIX alone” value by setting is: (10 mol % TOSU) 100%; (25 mol % TOSU) 66%.
